Columns and labels:
Assay type in all cases: in vivo, rat
SD rats [1] = assay: Motor activity: line crossing (horizonal activity) and rearing (vertical activity); details: for effect on vertical activity of the EGF rat groups: chronic administration for three weeks, tested 48 hours after the final administration, p<0.05 vs EGF/VEH
Procedure: The locomotor activities of the animals were measured at postnatal days 24 and 52. At postnatal day 24, it was measured using automated Activity Monitor (Neuro Science). At postnatal day 53, using a box having the size of 51×51×80 cm with lines of every 17 cms, the number of line crossing (horizonal activity) and the number of learing counts (vertical activity) within 10 minutes were measured.
The mean numbers (±SEM) of horizonal activity (Line Cross) and vertical activity (Rearing) at postnatal days 24 (P24) and 52 (P52) are shown in FIG. 5. FIG. 5A is the result obtained at postnatal day 24 (n=15, 8 males and 7 females) and FIG. 5B is the result obtained at postnatal day 52 (n=10, 5 males and 5 females). In FIG. 5, the left vertical axis indicates the number of the horizonal activity, while the right vertical axis indicates the number of the vertical activity. The left columns indicate the number of line crossing and the right columns indicate the number of learing counts, respectively. Moreover, the white columns indicate the control group (CON) and the black columns indicate the epidermal EGF administrated group, respectively.
The effect of anti-psychotic medicine on motor activity was also investigated using rats of postnatal day 52. The results investigated on four groups are shown in FIG. 6, namely 1) the control rats group (CON/VEH) with saline administration as a vehicle, (2) the EGF administrated/saline injected group (EGF/VEH, n=10), (3) the EGF administered/clozapin injected group (EGF/CLP, n=10) and (4) the EGF administered/haloperidol injected group (EGF/HAL, n=6). The same numbers of male and female are used in each of the groups. Saline, haloperidol and clozapine were administrated for three weeks, and each group was tested 48 hours after the final administration. Moreover, the asterisk mark (*) and the sharp mark (#) indicate significant difference as compared with the CON/VEH group and EGF/VEH group, respectively (* p<0.05, #p<0.05). […] Meanwhile, administration of these medicines was not effective on the horizonal activity.

SD rats [2] = assay: Social interaction test (sniffing behavior against unfamiliar partner); details: postnatal day 52; for effect on reduced sniffing behavior in the EGF administrated group: pretreated for three weeks, test 48 hours after the final injection
From the text: Social interaction test is a test that makes an index of the schizophrenic patient's trait that they dislike to make contact with other individuals and keeps away from society, can be made to an index. In general, the sniffling behavior of the animals, usually observed when an animal meets to an unknown individual, is observed. In general, in schizophrenic patients and in schizophrenic model animals, decrease of this behavior has been reported.
Moreover, the abnormality in social interaction of the EGF administrated rats was investigated according to the method of File et al. Using two rats of postnatal day 52, sniffling behavior between two rats was observed and the time of sniffling behavior was used as an index of anxiety. […] In concrete, the sniffling behavior was observed under high light level and unfamiliar condition in the opened space. The both groups of animals are videotaped and sniffing behaviors of the animals against those of the partner was recorded (FIG. 7).
In FIG. 7, the mean times (±SEM) of the sniffing behavior were shown. The investigation was performed on the four groups of (1) the control rats group (CON/VEH) with saline administration as a vehicle, (2) the EGF administrated/saline injected group (EGF/VEH, n=10), (3) the EGF administered/clozapin injected group (EGF/CLOZ, n=10) and (4) the EGF administered/haloperidol injected group (EGF/HAL, n=6). The EGF administrated rats were pretreated by clozapine or haloperidol for three weeks and the test was performed after 48 hours of the final injection on each group. The asterisk marks indicate significant difference as compared with the CON/VEH group (** p<0.01). […] Moreover, the reduced sniffing behavior in the EGF adinistrated group recovered by injection of clozapine (EGF/CLOZ). Meanwhile, halopelidol was not effective to recover the sniffing behavior (EGF/HAL).

SD rats [3] = assay: Prepulse inhibition (PPI) of acoustic startle response; details: for prepulse inhibition of EGF administered group under clozapine (EGF CZP) vs cytochrome-C group (Cont CZP): peritoneal, everyday from postnatal day 21; for effect on prepulse inhibition in EGF administered rats: administration for one week, test 23 hours after the final administration, haloperidol 0.3 mg/kg peritoneal (FIG. 4A); for prepulse inhibition, EGF administrated group vs cytochrome-C administered group: EGF 1.75 mg/kg s.c. five times P2-P10, p<0.05
From the text: As the method used to evaluate the sensorimotor and behavioral abnormalities, behavioristic measurements such as prepulse inhibition of startle response, latent inhibition, social interaction, motor activity of the animal, can be mentioned. The prepulse inhibition of startle response is a test to evaluate the ability of perception-motor activity, using the startle response as an index and the startle response can be evaluated in human being and animal in common. In this test, evaluation of attention deficit and abnormality in information processing in brain can be achieved scientifically and objectively. These are considered to be the main factors involved in schizophrenic pathology. […] This test is carried out by measurement of such reaction. Such decrease caused by the prepulse is called “prepulse inhibition”.
(§1) SD rats (Nippon SLC) from postnatal day 2 were used as the test animals. Human recombinant epidermal growth factor (EGF; Higeta Shoyu) and cytochrome-C (Sigma) were dissolved in physiological saline at 70 μL/mL. From postnatal day 2, 25 μL of the solution per 1 g of the body weights of rats (each 1.75 mg/kg) was subcutaneously administered to the rat at the nape of the neck every other day. This operation was repeated five times until postnatal day 10. From postnatal day 21, the startle response and the prepulse inhibition were measured in a startled chamber (San diego Instruments). That is, acoustic stimulus was used as the sensory stimulation to induce startle response. As a prepulse, acoustic stimuli at the intensity 5 to 15 db above the environmental noise (background noise) was given. After 100 milliseconds, a pulse stimuli at the intensity of 120 db was given. The extent of the response obtained under combination of prepulse and 120 db was divided by that obtained under 120 db alone (%) to obtain response ratio. The response ratio was subtracted from 100 and it was designated prepulse inhibition (PPI). The calculation formula used to calculate the prepulse inhibition (PPI) is shown below. [formula]
The effect of 8-Chloro-11-(4-methyl-1-piperazinyl)-5H-dibenzo[b,e][1,4]-diazepine (clozapine: Sigma-Aldrich Fine Chemical Co.Ltd.), recognized to be a therapeutic agent for schizophrenia of human beings, was evaluated on the present model animal to evaluate the adequacy of this model. To the human recombinant EGF administered group and the control group (cytochrome-C administered), clozapine was peritoneally administrated everyday. This administration was performed from postnatal day 21 and chronic abnormality of prepulse inhibition firstly occurs around this period. The prepulse inhibition (PPI) was measured at the postnatal days 30 (P30), 33 (P33) and 37 (P37) (FIG. 3). The result at postnatal day 30 (P30) is shown in FIG. 3A, the result at postnatal day 33 (P33) is shown in FIG. 3B, and the result at postnatal day 37 (P37) is shown in FIG. 3C, respectively.
Moreover, the effect of 4-(4-[p-Chlorophenyl]-4-hydroxypiperidino)-4′-fluorobutyrophenone (Haloperidol: Sigma-Aldrich Fine Chemical Co.Ltd.) was also evaluated. Haloperidol was peritoneally administrated at a dose of 0.3 mg/kg. In FIG. 4, investigation was performed on the four groups of: (1) the control rats group (CON/VEH) with saline administration (as a vehicle), (2) the EGF administrated/saline injected group (EGF/VEH, n=10), (3) the EGF administered/clozapin injected group (EGF/CLP, n=10) and (4) the EGF administered/haloperidol injected group (EGF/HPD, n=6). The administration of saline, clozapine and haloperidol continued for one week. Twenty-three hours after the final administration, the test was performed on the rats of the respective group.

SD rats [4] = assay: Active avoidance response in shuttle box (learning ability)
Procedure: Furthermore, the learning ability was investigated by active avoidance response. The active avoidance test was performed in a shuttle box, using rats of postnatal day 51-60 (10 trials/day). The conditioning stimulus (CS) adopted here was a stimuli by noise of 80 dB tone and room light for 5 s. When the CS was on, the test animals had to cross the other side of the shuttle box apparatus (avoidance response) in order to turn it off and avoid the appearance of the unconditioned stimulus (US) described below. As the US, an electric shock by conducting 0.6-mA intensity of constant current for 10 s was utilized. Moreover, the test animals were investigated whether they are capable of avoiding the electrical shock by learning.
In FIG. 8, the percentages (±SEM) of the avoidance response are shown. In FIG. 8, the open circle symbols indicate cytochrome-c treated control group (CON: n=10), and the closed triangle symbols indicate EGF-treated group (EGF: n=10), respectively. […] There was also no difference between these two groups in the latency of response or the number of crossings between the two sides of the shuttle box.

SD rats [5] = assay: Startle response to acoustic stimuli of 120 db; details: % in comparison with CON/VEH group (FIG. 4B)
Procedure: as §1, with “The response ratio was subtracted from 100 and it was designated prepulse inhibition (PPI). The calculation formula used to calculate the prepulse inhibition (PPI) is shown below. [formula]” left out
The results of the prepulse inhibition (FIG. 2A) and the startle response (FIG. 2B) analyzed in accordance to postnatal days are shown in FIG. 2. […]
Moreover, the effect of 4-(4-[p-Chlorophenyl]-4-hydroxypiperidino)-4′-fluorobutyrophenone (Haloperidol: Sigma-Aldrich Fine Chemical Co.Ltd.) was also evaluated. […]

[6] = postnatal day 51-60, n=10 per group

## CN1CCN(C2=Nc3cc(Cl)ccc3Nc3ccccc32)CC1 [clozapine, 8-Chloro-11-(4-methyl-1-piperazinyl)-5H-dibenzo[b,e][1,4]-diazepine]
SD rats [1]; postnatal day 52
  effect on vertical activity of the EGF rat groups: decreased significantly
SD rats [2]
  effect on reduced sniffing behavior in the EGF administrated group: recovered
SD rats [3]; postnatal day 30, 9th day of clozapine treatment
  prepulse inhibition of EGF administered group under clozapine (EGF CZP) vs cytochrome-C group (Cont CZP): significant abnormality in the prepulse inhibition remained
SD rats [3]; postnatal day 33
  prepulse inhibition of EGF administered group under clozapine (EGF CZP) vs cytochrome-C group (Cont CZP): significant difference in prepulse inhibition of the EGF administered group (EGF CZP) disappeared
SD rats [3]; postnatal day 37
  prepulse inhibition of EGF administered group under clozapine (EGF CZP) vs cytochrome-C group (Cont CZP): significant difference in prepulse inhibition of the EGF administered group (EGF CZP) disappeared
SD rats [3]; prepulse 75 db
  effect on prepulse inhibition in EGF administered rats: significant improvement in prepulse inhibition

## O=C(CCCN1CCC(O)(c2ccc(Cl)cc2)CC1)c1ccc(F)cc1 [haloperidol, 4-(4-[p-Chlorophenyl]-4-hydroxypiperidino)-4′-fluorobutyrophenone]
SD rats [1]; postnatal day 52
  effect on vertical activity of the EGF rat groups: decreased significantly
SD rats [2]
  effect on reduced sniffing behavior in the EGF administrated group: not effective
SD rats [3]; prepulse 75 db
  effect on prepulse inhibition in EGF administered rats: such effect was not observed

## EGF: Human recombinant epidermal growth factor (Higeta Shoyu), protein factor administered to juvenile rats to prepare the schizophrenic model animal (NSDSECPLSHDGYCLHDGVCMYIEALDKYACNCVVGYIGERCQYRDLKWWELR; Epidermal growth factor; UniProt P01133 971-1023, looked up)
SD rats [1]; postnatal day 24, n=15
  number of horizonal activity (line cross), EGF group vs cytochrome-C group (CON): no significant difference
  number of vertical activity (rearing), EGF group vs cytochrome-C group (CON): no significant difference
SD rats [1]; postnatal day 52, n=10, counts within 10 minutes
  number of vertical activity (rearing), EGF group vs cytochrome-C group: significant difference was observed
SD rats [2]; high light level, unfamiliar condition, p<0.01
  sniffing behavior against the unfamiliar partner, EGF/VEH vs control rats: reduced significantly
SD rats [4]; adult phase (postnatal day 51-60)
  learning ability of the EGF-treated rats: appeared to be normal
SD rats [4]; postnatal day 51-60, 10 trials/day, n=10 per group
  ability to escape from the electric shock, EGF-treated group vs cytochrome-c control group: no difference
SD rats [4]; [6]
  latency of response, EGF-treated group vs control group: no difference
  number of crossings between the two sides of the shuttle box, EGF-treated group vs control group: no difference
SD rats [3]; postnatal day 30, prepulse intensities 80 db and 85 db
  prepulse inhibition, EGF administrated group vs cytochrome-C administered group: significant decrease
SD rats [3]; postnatal day 33, prepulse intensities 80 db and 85 db
  prepulse inhibition, EGF administrated group vs cytochrome-C administered group: significant decrease
SD rats [3]; postnatal day 37, prepulse intensities 75 db, 80 db and 85 db
  prepulse inhibition, EGF administrated group vs cytochrome-C administered group: significant decrease
SD rats [3]; prepulse 75 db, postnatal days 21, 28, 30, 37, 46, 51, 60 and 90, n=10 per group (FIG. 2)
  prepulse inhibition and startle response in accordance to postnatal days, EGF group vs cytochrome-C control group: significant difference was recognized after postnatal day 28
SD rats [5]
  startle response against acoustic stimuli of 120 db, EGF administered groups vs CON/VEH group: significant stronger
